Data: the supplement of paper PMC10331698
± gives the standard deviation of the averaged measurements.

What was measured:
Experiment in all cases: level (log10 ratio to DMSO vehicle control); higher = higher biomarker level / cell amount than vehicle control
[1] = compound: O=C(Cl)C(F)(F)C(F)(F)C(F)(F)C(=O)Cl [Hexafluoroglutaryl chloride]; settings: in DMSO
Procedure: (§1)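 BioMAP Diversity Plus panel of 12 human primary cell co-culture systems (3C, 4H, LPS, SAg, BT, BF4T, BE3C, CASM3C, HDF3CGF, KF3CT, MyoF, Mphg). Compounds were added 1 h before stimulation and left for 24 h (MyoF 48 h; BT 72 h for soluble read-outs or 6 d for IgG). Biomarkers were read by ELISA, cytotoxicity by SRB, PBMC viability and proliferation by Alamar Blue. Each well value was divided by the mean of 8 DMSO control wells on the same plate and log10 transformed; duplicate blinded samples were tested at 4 concentrations.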

[2] = compound: O=C(CC(=O)C(F)(F)C(F)(F)C(F)(F)F)c1cccs1 [(Perfluorobutyryl)-2-thenoylmethane]; settings: in DMSO
Procedure: as §1

[3] = compound: OCC(F)(F)C(F)(F)C(F)(F)C(F)(F)C(F)(F)C(F)(F)C(F)(F)C(F)(F)C(F)(F)C(F)(F)C(F)(F)F [11:1 Fluorotelomer alcohol]; settings: in DMSO
Procedure: as §1

[4] = compound: O=S(=O)(O)CCC(F)(F)C(F)(F)C(F)(F)C(F)(F)F [4:2 Fluorotelomer sulfonic acid]; settings: in DMSO
Procedure: as §1

[5] = compound: OCC(F)(F)C(F)(F)C(F)(F)C(F)(F)C(F)(F)C(F)(F)F [6:1 Fluorotelomer alcohol]; settings: in DMSO
Procedure: as §1

[6] = compound: FC(F)(I)C(F)(F)C(F)(F)C(F)(F)C(F)(F)C(F)(F)I [1,6-Diiodoperfluorohexane]; settings: 6700 nM; in DMSO
Procedure: as §1

[7] = compound: O=S(=O)(OCC(F)(F)F)C(F)(F)C(F)(F)C(F)(F)C(F)(F)F [2,2,2-Trifluoroethyl perfluorobutanesulfonate]; settings: in DMSO
Procedure: as §1

Row | Test System | level (log10) ([1]; 6700 nM) | level (log10) ([1]; 20000 nM) | level (log10) ([1]; 60000 nM) | level (log10) ([2]; 6700 nM) | level (log10) ([2]; 20000 nM) | level (log10) ([3]; 1100 nM) | level (log10) ([3]; 3300 nM) | level (log10) ([3]; 10000 nM) | level (log10) ([4]; 6700 nM) | level (log10) ([4]; 20000 nM) | level (log10) ([4]; 60000 nM) | level (log10) ([5]; 6700 nM) | level (log10) ([5]; 20000 nM) | level (log10) ([5]; 60000 nM) | level (log10) [6] | level (log10) ([7]; 6700 nM) | level (log10) ([7]; 20000 nM) | level (log10) ([7]; 60000 nM)
1 | CASM3C:Serum Amyloid A | -0.022 ± 0.038 | -0.008 ± 0.0042 | -0.002 ± 0.0014 | 0.0285 ± 0.013 | -0.038 ± 0.013 | -0.0025 ± 0.044 | -0.0045 ± 0.0078 | 0.0045 ± 0.016 | -0.008 ± 0.017 | -0.0055 ± 0.0021 | -0.015 ± 0.041 | -0.001 ± 0.013 | 0.01 ± 0.017 | -0.052 ± 0.018 | -0.008 | -0.0625 ± 0.077 | -0.0375 ± 0.052 | 0.006 ± 0.031
2 | HDF3CGF:MMP-1 | 0.0195 ± 0.012 | 0.013 ± 0.0042 | 0.018 | -0.0195 ± 0.0092 | -0.0935 ± 0.0078 | -0.011 ± 0.0057 | -0.042 ± 0.0014 | -0.0255 ± 0.035 | -0.009 ± 0.0028 | -0.0285 ± 0.028 | -0.0365 ± 0.026 | 0.002 ± 0.0099 | 0.008 ± 0.0071 | -0.0355 ± 0.07 | -0.303 | 0.0125 ± 0.0078 | 0.022 ± 0.0085 | 0.0405 ± 0.0092
3 | KF3CT:MMP-9 | -0.0515 ± 0.013 | -0.0255 ± 0.028 | -0.024 ± 0.03 | -0.107 ± 0.027 | -0.122 ± 0.012 | -0.042 ± 0.0099 | -0.071 ± 0.027 | -0.0545 ± 0.026 | 0.0075 ± 0.012 | -0.011 ± 0.037 | 0.023 ± 0.0057 | -0.018 ± 0.0028 | -0.0315 ± 0.0021 | 0.002 ± 0.0028 | -0.136 | -0.012 ± 0.017 | -0.016 ± 0.035 | -0.001 ± 0.025
4 | MyoF:PAI-I | -0.001 ± 0.0085 | 0.02 ± 0.013 | 0.01 ± 0.0042 | 0.0095 ± 0.0035 | 0.013 ± 0.0085 | 0.009 ± 0.0042 | 0.014 ± 0.013 | 0.0205 ± 0.0064 | -0.0015 ± 0.00071 | 0.0055 ± 0.0035 | 0.0055 ± 0.012 | 0.0015 ± 0.0078 | -0.006 ± 0.0042 | 0.0025 ± 0.019 | -0.053 | -0.0115 ± 0.0092 | -0.011 ± 0.018 | -0.0065 ± 0.018
5 | KF3CT:SRB | -0.0015 ± 0.005 | 0.005 ± 0.0014 | 0.0055 ± 0.0064 | -0.008 | -0.0105 ± 0.005 | -0.01 ± 0.0057 | -0.0285 ± 0.005 | -0.014 ± 0.0057 | -0.0015 ± 0.0021 | -0.0015 ± 0.0021 | 0.0035 ± 0.0092 | -0.0035 ± 0.0064 | -0.0025 ± 0.0035 | -0.004 ± 0.0028 | -0.288 | -0.001 | -0.0045 ± 0.0021 | -0.0025 ± 0.0092
6 | BE3C:SRB | 0.0045 ± 0.0092 | 0.0065 ± 0.013 | 0.0115 ± 0.0035 | -0.02 ± 0.0071 | -0.031 ± 0.0071 | -0.03 ± 0.014 | -0.0485 ± 0.005 | -0.0235 ± 0.0064 | 0.0015 ± 0.00071 | -0.007 ± 0.0085 | 0.0005 ± 0.0078 | -0.0015 ± 0.005 | -0.0055 ± 0.0021 | 0.002 ± 0.011 | -0.005 | 0 ± 0.0071 | 0.004 ± 0.0042 | 0.005
7 | lMphg:M-CSF | 0.011 | -0.021 ± 0.031 | 0.018 ± 0.011 | -0.0285 ± 0.0021 | -0.072 ± 0.0085 | -0.0045 ± 0.005 | -0.0195 ± 0.0078 | -0.0735 ± 0.016 | -0.0105 ± 0.0078 | -0.024 ± 0.0099 | -0.0175 ± 0.0035 | -0.023 ± 0.028 | -0.0415 ± 0.035 | -0.0285 ± 0.029 | -0.023 | 0.035 ± 0.017 | 0.014 ± 0.018 | -0.006 ± 0.021
8 | HDF3CGF:CXCL10/IP-10 | -0.013 ± 0.021 | -0.01 ± 0.016 | -0.0235 ± 0.0035 | -0.01 | -0.141 ± 0.012 | -0.0435 ± 0.015 | -0.0725 ± 0.0064 | -0.039 ± 0.02 | 0.0085 ± 0.0078 | -0.013 ± 0.016 | -0.0205 ± 0.06 | -0.002 ± 0.0014 | -0.017 ± 0.044 | -0.401 ± 0.061 | -0.315 | -0.024 ± 0.0014 | -0.058 | -0.099 ± 0.0042
9 | lMphg:CD69 | -0.021 ± 0.011 | -0.032 ± 0.018 | -0.0135 ± 0.029 | -0.169 ± 0.049 | -0.23 ± 0.013 | -0.038 ± 0.017 | -0.103 ± 0.028 | -0.0685 ± 0.0078 | -0.023 ± 0.0028 | -0.014 ± 0.021 | -0.044 ± 0.059 | -0.007 ± 0.047 | -0.038 ± 0.052 | -0.055 ± 0.073 | -0.01 | -0.016 ± 0.033 | -0.0355 ± 0.0021 | -0.079 ± 0.028
10 | KF3CT:TIMP-2 | -0.029 ± 0.023 | 0.003 ± 0.0099 | 0.02 ± 0.034 | -0.0365 ± 0.00071 | -0.05 ± 0.016 | -0.014 ± 0.0028 | -0.0405 ± 0.013 | 0.002 ± 0.016 | -0.0215 ± 0.023 | -0.0185 ± 0.042 | -0.0025 ± 0.0064 | -0.0025 ± 0.005 | 0.0035 ± 0.0021 | 0.008 ± 0.017 | -0.022 | -0.049 ± 0.0057 | -0.0215 ± 0.049 | -0.0495 ± 0.00071
11 | HDF3CGF:Collagen III | -0.027 ± 0.0028 | -0.06 ± 0.031 | -0.023 ± 0.028 | 0.0155 ± 0.013 | -0.452 ± 0.0042 | 0.2 ± 0.0021 | 0.168 ± 0.057 | 0.171 ± 0.0042 | -0.0795 ± 0.13 | -0.0585 ± 0.14 | -0.0265 ± 0.09 | -0.0865 ± 0.14 | 0.0115 ± 0.074 | -0.367 ± 0.052 | -0.358 | -0.0265 ± 0.018 | -0.0345 ± 0.033 | -0.0995 ± 0.037
12 | KF3CT:CCL2/MCP-1 | -0.021 ± 0.016 | -0.007 ± 0.017 | 0.0075 ± 0.016 | 0.0205 ± 0.013 | 0.006 ± 0.0057 | 0.0265 ± 0.013 | 0.0205 ± 0.00071 | 0.0305 ± 0.00071 | -0.0205 ± 0.012 | -0.0125 ± 0.012 | -0.0015 ± 0.025 | 0.012 ± 0.0014 | 0.009 ± 0.0099 | -0.007 ± 0.0085 | -0.251 | -0.018 ± 0.057 | -0.0485 ± 0.044 | -0.022 ± 0.014
13 | HDF3CGF:TIMP-1 | 0.002 ± 0.014 | 0.012 ± 0.025 | 0.0395 ± 0.05 | 0.069 ± 0.025 | 0.0215 ± 0.011 | -0.029 ± 0.024 | -0.07 ± 0.0085 | -0.033 ± 0.016 | -0.0045 ± 0.047 | -0.0015 ± 0.00071 | 0.0035 ± 0.084 | -0.009 ± 0.0085 | -0.022 | -0.014 ± 0.027 | -0.077 | -0.0095 ± 0.042 | 0.039 ± 0.0042 | 0.0325 ± 0.021
14 | HDF3CGF:CD106/VCAM-1 | -0.013 ± 0.0085 | 0.0205 ± 0.049 | -0.041 ± 0.014 | -0.0405 ± 0.018 | 0.025 ± 0.0042 | -0.075 ± 0.011 | -0.144 ± 0.013 | -0.069 ± 0.075 | 0.0515 ± 0.081 | 0.0365 ± 0.094 | 0.021 ± 0.11 | -0.0135 ± 0.013 | 0.004 ± 0.044 | -0.681 ± 0.28 | -0.335 | -0.022 ± 0.0099 | -0.05 ± 0.034 | -0.114 ± 0.037
15 | MyoF:alpha-SM Actin | -0.0115 ± 0.018 | -0.0065 ± 0.057 | -0.0105 ± 0.035 | -0.0445 ± 0.042 | -0.0865 ± 0.059 | -0.0025 ± 0.015 | -0.0195 ± 0.03 | 0.0045 ± 0.018 | 0 ± 0.052 | 0.022 ± 0.0028 | 0.035 ± 0.0028 | 0 ± 0.0057 | -0.006 ± 0.0099 | 0.011 ± 0.054 | -0.486 | -0.0265 ± 0.025 | -0.0175 ± 0.047 | -0.0235 ± 0.005
